Read-outs that look alike come from different tables or passages of the source.
Key:
[1] = biological target: Mcl-1 protein (UniProtKB primary accession number: Q07820) (Homo sapiens, UniProt Q07820); assay: Inhibition of Mcl-1 by fluorescence polarisation, Method 1; type: binding; settings: fluorescence polarisation; Method 1, or Method 2; read-out: IC50 (M) Mcl-1 FP
Procedure, shortened: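 An 11-point DMSO dilution of compound is mixed with buffer (10 mM HEPES, 150 mM NaCl, 0.05% Tween 20, pH 7.4) carrying 1 nM fluorescein-labelled ligand and 5 nM Mcl-1, final concentrations. Displacement is monitored by fluorescence polarisation.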

[2] = system: H929 multiple myeloma tumour line; assay: In vitro cytotoxicity, Microculture Tetrazolium Assay; type: cell-based; settings: H929 cells, 48 hours exposure, MTT, read-out: IC50 (μM) MTT H929
Protocol: The cytotoxicity studies were carried out on the H929 multiple myeloma tumour line.
The cells are distributed onto microplates and exposed to the test compounds for 48 hours.

Chain of Mcl-1 protein (Q07820 whole entry): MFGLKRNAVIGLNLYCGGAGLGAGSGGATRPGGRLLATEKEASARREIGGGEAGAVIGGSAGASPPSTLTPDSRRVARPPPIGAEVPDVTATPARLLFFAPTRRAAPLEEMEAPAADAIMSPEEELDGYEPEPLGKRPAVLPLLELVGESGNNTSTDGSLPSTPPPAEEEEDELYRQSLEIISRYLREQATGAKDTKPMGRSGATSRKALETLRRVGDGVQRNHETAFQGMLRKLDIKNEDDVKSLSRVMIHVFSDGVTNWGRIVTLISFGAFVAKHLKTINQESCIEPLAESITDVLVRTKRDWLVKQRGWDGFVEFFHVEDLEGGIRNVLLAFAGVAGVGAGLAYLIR

SMILES | IC50 [1] [M] | IC50 ([2]; Homo sapiens, NCI-H929, 48 h) [µM] | IC50 [2] [µM]
CC#Cc1sc2ncnc(OC(Cc3ccccc3OC)C(=O)O)c2c1-c1ccc(OCCN2CCNCC2)c(Cl)c1C [Example 684, (2R)-2-{[(5Sa)-5-{3-chloro-2-methyl-4-[2-(piperazin-1-yl)ethoxy]phenyl}-6-(prop-1-yn-1-yl)thieno[2,3-d]pyrimidin-4-yl]oxy}-3-(2-methoxyphenyl)propanoic acid] | 1.9e-08 | 2.23 | 
CC#Cc1sc2ncnc(OC(Cc3ccccc3OC)C(=O)O)c2c1-c1ccc(OCCN2CCN(C)CC2)c(F)c1C [Example 687, (2R)-2-{[(5Sa)-5-{3-fluoro-2-methyl-4-[2-(4-methylpiperazin-1-yl)ethoxy]phenyl}-6-(prop-1-yn-1-yl)thieno[2,3-d]pyrimidin-4-yl]oxy}-3-(2-methoxyphenyl)propanoic acid] | 2.9e-08 | 3.66 | 
COCOc1cc(F)ccc1CC(Oc1ncnc2sc(-c3ccc(F)o3)c(-c3ccc(OCCN4CCN(C)CC4)c(Cl)c3C)c12)C(=O)O [Example 690, (2R)-2-{[(5Sa)-5-{3-chloro-2-methyl-4-[2-(4-methylpiperazin-1-yl)ethoxy]phenyl}-6-(5-fluorofuran-2-yl)thieno[2,3-d]pyrimidin-4-yl]oxy}-3-[4-fluoro-2-(methoxymethoxy)phenyl]propanoic acid] | 2.3e-08 | 0.178 | 
Cc1c(-c2c(-c3ccc(F)o3)sc3ncnc(OC(Cc4ccc(F)cc4OCc4cnccn4)C(=O)O)c23)ccc(OCCN2CCN(C)CC2)c1Cl [Example 691, (2R)-2-{[(5Sa)-5-{3-chloro-2-methyl-4-[2-(4-methylpiperazin-1-yl)ethoxy]phenyl}-6-(5-fluorofuran-2-yl)thieno[2,3-d]pyrimidin-4-yl]oxy}-3-[4-fluoro-2-(pyrazin-2-ylmethoxy)phenyl]propanoic acid] | 9.6e-09 | 0.037 | 
COc1cc(F)ccc1CC(Oc1ncnc2sc(-c3ccc(F)o3)c(-c3ccc(OCCN4CCN(C)CC4)c(Cl)c3C)c12)C(=O)O [Example 692, (2R)-2-{[(5Sa)-5-{3-chloro-2-methyl-4-[2-(4-methylpiperazin-1-yl)ethoxy]phenyl}-6-(5-fluorofuran-2-yl)thieno[2,3-d]pyrimidin-4-yl]oxy}-3-(4-fluoro-2-methoxyphenyl)propanoic acid] | 1e-08 | 0.079 | 
Cc1c(-c2c(-c3ccc(F)nc3)sc3ncnc(OC(Cc4ccccc4OCc4ccnn4CC(F)(F)F)C(=O)O)c23)ccc(OCCN2CCN(C)CC2)c1Cl [Example 693, (2R)-2-{[(5Sa)-5-{3-chloro-2-methyl-4-[2-(4-methylpiperazin-1-yl)ethoxy]phenyl}-6-(6-fluoropyridin-3-yl)thieno[2,3-d]pyrimidin-4-yl]oxy}-3-(2-{[1-(2,2,2-trifluoroethyl)-1H-pyrazol-5-yl]methoxy}phenyl)propanoic acid] | 9.3e-10 | 0.101 | 
COCCOc1ccc(-c2sc3ncnc(OC(Cc4ccccc4OCc4ccnn4CC(F)(F)F)C(=O)O)c3c2-c2ccc(OCCN3CCN(C)CC3)c(Cl)c2C)cn1 [Example 694, (2R)-2-[((5Sa)-5-{3-chloro-2-methyl-4-[2-(4-methylpiperazin-1-yl)ethoxy]phenyl}-6-[6-(2-methoxyethoxy)pyridin-3-yl]thieno[2,3-d]pyrimidin-4-yl)oxy]-3-(2-{[1-(2,2,2-trifluoroethyl)-1H-pyrazol-5-yl]methoxy}phenyl)propanoic acid] | 6.4e-09 | 0.183 | 
Cc1c(-c2c(-c3ccc(OCC(F)(F)F)nc3)sc3ncnc(OC(Cc4ccccc4OCc4ccnn4CC(F)(F)F)C(=O)O)c23)ccc(OCCN2CCN(C)CC2)c1Cl [Example 695, (2R)-2-[((5Sa)-5-{3-chloro-2-methyl-4-[2-(4-methylpiperazin-1-yl)ethoxy]phenyl}-6-[6-(2,2,2-trifluoroethoxy)pyridin-3-yl]thieno[2,3-d]pyrimidin-4-yl)oxy]-3-(2-{[1-(2,2,2-trifluoroethyl)-1H-pyrazol-5-yl]methoxy}phenyl)propanoic acid] | 1.6e-08 | 0.268 | 
COc1ccc(-c2sc3ncnc(OC(Cc4ccccc4OCc4ccnn4CC(F)(F)F)C(=O)O)c3c2-c2ccc(OCCN3CCN(C)CC3)c(Cl)c2C)cn1 [Example 696, (2R)-2-{[(5Sa)-5-{3-chloro-2-methyl-4-[2-(4-methylpiperazin-1-yl)ethoxy]phenyl}-6-(6-methoxypyridin-3-yl)thieno[2,3-d]pyrimidin-4-yl]oxy}-3-(2-{[1-(2,2,2-trifluoroethyl)-1H-pyrazol-5-yl]methoxy}phenyl)propanoic acid] | 9.6e-09 | 0.05 | 
COc1nccc(COc2ccccc2CC(Oc2ncnc3sc(-c4cccc(F)c4F)c(-c4ccc(OCCN5CCN(C)CC5)c(Cl)c4C)c23)C(=O)O)n1 [Example 703, (2R)-2-{[(5Sa)-5-{3-chloro-2-methyl-4-[2-(4-methylpiperazin-1-yl)ethoxy]phenyl}-6-(2,3-difluorophenyl)thieno[2,3-d]pyrimidin-4-yl]oxy}-3-{2-[(2-methoxypyrimidin-4-yl)methoxy]phenyl}propanoic acid] | 9.3e-09 | 0.03 | 
CCn1nccc1COc1ccccc1CC(Oc1ncnc2sc(-c3cccc(F)c3F)c(-c3ccc(OCCN4CCN(C)CC4)c(Cl)c3C)c12)C(=O)O [Example 704, (2R)-2-{[(5Sa)-5-{3-chloro-2-methyl-4-[2-(4-methylpiperazin-1-yl)ethoxy]phenyl}-6-(2,3-difluorophenyl)thieno[2,3-d]pyrimidin-4-yl]oxy}-3-{2-[(1-ethyl-1H-pyrazol-5-yl)methoxy]phenyl}propanoic acid] | 9.9e-09 | 0.025 | 
Cc1c(-c2c(-c3cccc(F)c3F)sc3ncnc(OC(Cc4ccccc4OCc4ccnc(C(F)(F)F)n4)C(=O)O)c23)ccc(OCCN2CCN(C)CC2)c1Cl [Example 705, (2R)-2-{[(5Sa)-5-{3-chloro-2-methyl-4-[2-(4-methylpiperazin-1-yl)ethoxy]phenyl}-6-(2,3-difluorophenyl)thieno[2,3-d]pyrimidin-4-yl]oxy}-3-(2-{[2-(trifluoromethyl)pyrimidin-4-yl]methoxy}phenyl)propanoic acid] | 1.7e-08 | 0.02 | 
COc1nccc(COc2ccccc2CC(Oc2ncnc3sc(-c4ccc(F)c(F)c4)c(-c4ccc(OCCN5CCN(C)CC5)c(Cl)c4C)c23)C(=O)O)n1 [Example 706, (2R)-2-{[(5Sa)-5-{3-chloro-2-methyl-4-[2-(4-methylpiperazin-1-yl)ethoxy]phenyl}-6-(3,4-difluorophenyl)thieno[2,3-d]pyrimidin-4-yl]oxy}-3-{2-[(2-methoxypyrimidin-4-yl)methoxy]phenyl}propanoic acid] | 3.6e-09 | 0.04 | 
Cc1c(-c2c(-c3ccc(F)c(F)c3)sc3ncnc(OC(Cc4ccccc4OCc4ccnc(C(F)(F)F)n4)C(=O)O)c23)ccc(OCCN2CCN(C)CC2)c1Cl [Example 707, (2R)-2-{[(5Sa)-5-{3-chloro-2-methyl-4-[2-(4-methylpiperazin-1-yl)ethoxy]phenyl}-6-(3,4-difluorophenyl)thieno[2,3-d]pyrimidin-4-yl]oxy}-3-(2-{[2-(trifluoromethyl)pyrimidin-4-yl]methoxy}phenyl)propanoic acid] | 1.4e-08 | 0.042 | 
CCn1nccc1COc1ccccc1CC(Oc1ncnc2sc(-c3ccc(F)c(F)c3)c(-c3ccc(OCCN4CCN(C)CC4)c(Cl)c3C)c12)C(=O)O [Example 708, (2R)-2-{[(5Sa)-5-{3-chloro-2-methyl-4-[2-(4-methylpiperazin-1-yl)ethoxy]phenyl}-6-(3,4-difluorophenyl)thieno[2,3-d]pyrimidin-4-yl]oxy}-3-{2-[(1-ethyl-1H-pyrazol-5-yl)methoxy]phenyl}propanoic acid] | 9.6e-09 | 0.055 | 
Cc1c(-c2c(-c3cccc(F)c3)sc3ncnc(OC(Cc4ccccc4OC(C)C)C(=O)O)c23)ccc(OCCN2CCN(C)CC2)c1Cl [Example 709, (2R)-2-{[(5Sa)-5-{3-chloro-2-methyl-4-[2-(4-methylpiperazin-1-yl)ethoxy]phenyl}-6-(3-fluorophenyl)thieno[2,3-d]pyrimidin-4-yl]oxy}-3-[2-(propan-2-yloxy)phenyl]propanoic acid] | 3.2e-08 | 0.518 | 
COc1ccc(COc2ccccc2CC(Oc2ncnc3sc(-c4cccc(F)c4)c(-c4ccc(OCCN5CCN(C)CC5)c(Cl)c4C)c23)C(=O)O)cc1 [Example 710, (2R)-2-{[(5Sa)-5-{3-chloro-2-methyl-4-[2-(4-methylpiperazin-1-yl)ethoxy]phenyl}-6-(3-fluorophenyl)thieno[2,3-d]pyrimidin-4-yl]oxy}-3-{2-[(4-methoxybenzyl)oxy]phenyl}propanoic acid] | 2.4e-09 | 0.384 | 
Cc1c(-c2c(-c3cccc(F)c3)sc3ncnc(O[C@H](Cc4ccccc4O)C(=O)O)c23)ccc(OCCN2CCN(C)CC2)c1Cl [Example 711, (2R)-2-{[(5Sa)-5-{3-chloro-2-methyl-4-[2-(4-methylpiperazin-1-yl)ethoxy]phenyl}-6-(3-fluorophenyl)thieno[2,3-d]pyrimidin-4-yl]oxy}-3-(2-hydroxyphenyl)propanoic acid] | 3.7e-09 |  | 0.591
COc1ccc(Cl)cc1CC(Oc1ncnc2sc(-c3ccc(Cl)o3)c(-c3ccc(OCCN4CCN(C)CC4)c(Cl)c3C)c12)C(=O)O [Example 714, (2R)-2-{[6-(5-chlorofuran-2-yl)-(5Sa)-5-{3-chloro-2-methyl-4-[2-(4-methylpiperazin-1-yl)ethoxy]phenyl}thieno[2,3-d]pyrimidin-4-yl]oxy}-3-(5-chloro-2-methoxyphenyl)propanoic acid] | 3.4e-08 | 0.188 | 

— patent US9670227B2, “Thienopyrimidine derivatives, a process for their preparation and pharmaceutical compositions containing them” (LES LABORATOIRES SERVIER, priority 2013, dated 2017)
